System: Aonidiella aurantii
Assay: Insecticidal efficacy of emulsions sprayed on citrus groves (oranges)
Details: concentration 0.151/hl
Description: Samples of products to be tested on citrus groves (oranges) are prepared. The reference R corresponds to an untreated citrus plot.
Emulsions according to the invention are used, obtained from X6, at 3% in a mixture of hydrocarbons as described in Example 1 for forming the concentrate. This concentrate is mixed at concentrations of 1 and 2% in water, then emulsified. The citrus groves are sprayed at a rate of 1200 L/ha. The efficacy of these emulsions is compared to that of an emulsion of the prior art T1, as described hereinafter and to a chemical reference product corresponding to the use of a synthetic pesticide, here Chlorpyrifos, reference T2.
For the emulsion T1, the concentrate is prepared using 1.4% ethoxylated C12-C14 alcohol and 1.6% ethoxylated C13 alcohol acid phosphate in the same mixture of hydrocarbons. As previously, this concentrate is mixed at concentrations of 1 and 2% in water then emulsified. The resulting emulsions are applied in an identical manner onto citrus.
The efficacy of these emulsions in preventing harmful insect activity is then evaluated, by comparison with the reference products and the prior art. To this end, a count is undertaken of the number of insects present at the time of application of the emulsions on the reference, and the number of insects having withstood the treatment after 20 days. The efficacy is measured according to the Abbott formula based on the number of live insects, the number of dead insects and the % of citrus infected (more than 3 insects per fruit).

CCOP(=S)(OCC)Oc1nc(Cl)c(Cl)cc1Cl [Concentrate T2, Chlorpyrifos]
% Efficacy (Based on mortality) (Abbott formula, t + 20 days): 83.3% | % Efficacy (Based on the number of live individuals) (Abbott formula, t + 20 days): 89.9% | % mortality (t + 20 days, citrus): 88.0% | Number of dead individuals (t + 20 days, citrus): 172.0 | Number of live individuals (t + 20 days, citrus): 23.5 | % fruits infected (t + 20 days, infected = more than 3 insects per fruit): 7.8% | Number of live individuals (t = 0 (at application), citrus): 216.5

Reference: patent US9596859B2, “Emulsifiable concentrate for a phytosanitary composition, phytosanitary composition and phytosanitary film” (Total Marketing Services, priority 2009, dated 2017)
